Results on 38 molecules are retold here after paper PMC9764071 (Acta Pharmaceutica Sinica. B, 2022).

For one data set, the target named is PD-1/PD-L1 interaction (Homo sapiens, UniProt Q9NZQ7). The experiment in a line: TR-FRET assay of PD-1/PD-L1 interaction inhibition. The data set is classed as binding.
For the next data set, the system named is A375 cells. The experiment in a line: Cytotoxicity evaluation by Real-Time Cell Analyzing. The data set is classed as cell-based. The settings on record: 20 μmol/L of compound; RTCA; versus control group.
Data set [1] concerns the target PD-1/PD-L1 interaction on H460 cells (Homo sapiens, UniProt Q9NZQ7). The data set is classed as cell-based.
Data set [2] addresses PD-1/PD-L1 interaction on MDA-MB-231 cells (Homo sapiens, UniProt Q9NZQ7). In kind it is cell-based. The settings on record: P39 0–200 nmol/L, 24 h; immunostaining.
Data set [3] relates to PD-1/PD-L1 interaction, H358 cells. Put plainly: PD-1/PD-L1 blockade bioassay. The data set is classed as cell-based. The settings on record: P39-treated H358 cells versus untreated cells; concentration-dependent.
For another data set, the system named is H460 cells. The experiment in a line: PBMCs-mediated tumor cell-killing assay. In kind it is cell-based, human. The settings on record: P39 100 or 200 nmol/L, 24 h.
A further data set is described as follows: Acute toxicity test. In kind it is in vivo, ICR mice.
A further data set concerns MC38 tumor cells. Put plainly: In vivo antitumor activity, MC38 mouse model. Also on record: species or system C57BL/6 mice.
In data set [4] the test system is Lewis lung carcinoma (LLC) cells overexpressing hPD-L1 (LLC-hPD-L1). The experiment in a line: In vivo antitumor activity, humanized LLC-hPD-L1 mouse model. More on the design: species or system hPD-1-knockin C57BL/6 mice.
The test system is the same in data set [5]. The experiment in a line: In vivo antitumor activity on Balb/c-nude mice. To be noted: P39 4, 10 and 25 mg/kg.
In a further data set the test system is T cells in TILs. The experiment in a line: Flow cytometry of tumor infiltrating lymphocytes, MC38 model. In kind it is in vivo, C57BL/6 mice.
The test system of data set [6] is CD8, IFN-γ and GzmB expression. The experiment in a line: Immunohistochemistry. In kind it is in vivo, mice. To be noted: IHC of tumor tissues; Fig. S8.

PD-1/PD-L1 interaction, sequence (Q9NZQ7 19-238 limits assumed): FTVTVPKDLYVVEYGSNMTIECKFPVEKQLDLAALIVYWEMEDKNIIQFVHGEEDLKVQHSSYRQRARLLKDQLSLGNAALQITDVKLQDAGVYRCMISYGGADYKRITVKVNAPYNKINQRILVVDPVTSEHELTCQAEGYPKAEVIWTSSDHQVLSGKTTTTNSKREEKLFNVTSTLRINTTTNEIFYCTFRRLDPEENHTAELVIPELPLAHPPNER
PD-1/PD-L1 interaction on H460 cells, sequence (Q9NZQ7 19-290): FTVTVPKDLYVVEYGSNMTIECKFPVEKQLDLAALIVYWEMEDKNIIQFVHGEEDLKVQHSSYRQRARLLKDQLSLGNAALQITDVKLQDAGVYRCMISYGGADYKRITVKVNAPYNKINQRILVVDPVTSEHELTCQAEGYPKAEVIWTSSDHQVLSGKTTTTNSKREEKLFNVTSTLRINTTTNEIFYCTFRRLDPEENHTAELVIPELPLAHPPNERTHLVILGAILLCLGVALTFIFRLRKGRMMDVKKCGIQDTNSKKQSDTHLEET
PD-1/PD-L1 interaction on MDA-MB-231 cells, sequence (Q9NZQ7 19-290): as above

For the molecule `Cc1c(-c2ccccc2)cccc1N1C(=O)c2cc(CNCCO)c(OCc3ccccc3C#N)cc2C1=O` [P3], the midpoint of inhibition at PD-1/PD-L1 interaction, the IC50, lay at 171 nM. In the data set with A375 cells, the “cytotoxicity, real-time growth of A375 cells” value (“cytotoxicity, real-time growth” below) is on record as “essentially non-toxic to A375 cells”. At PD-1/PD-L1 interaction, `Cc1c(-c2ccccc2)cccc1N1C(=O)c2cc(CN3CCCC[C@H]3C(=O)O)c(OCc3cccc(C#N)c3)cc2C1=O` [P11] had an IC50 of 117 nM. `Cc1c(-c2ccccc2)cccc1N1C(=O)c2cc(CN[C@@H](CO)C(=O)O)c(OCc3cccc(C#N)c3)cc2C1=O` [P30] returned a 50% inhibitory concentration (IC50) against PD-1/PD-L1 interaction of 14 nM. Further, in the data set on A375 cells, the “cytotoxicity, real-time growth” value is recorded as “essentially non-toxic to A375 cells”. For the molecule `Cc1c(-c2ccccc2)cccc1N1C(=O)c2cc(CN[C@@H](C)C(=O)OC(C)(C)C)c(OCc3cccc(C#N)c3)cc2C1=O` [P36], on PD-1/PD-L1 interaction, the concentration for half-maximal inhibition (IC50) was found to be 1670 nM.

`N#Cc1cccc(COc2cc3c(cc2CNC2CCOCC2)C(=O)N(c2cccc(-c4ccccc4)c2F)C3=O)c1` [P15] displayed an IC50 against PD-1/PD-L1 interaction of 58.7 nM. The “cytotoxicity, real-time growth” value in the data set on A375 cells is on record as “essentially non-toxic to A375 cells”.

At PD-1/PD-L1 interaction, `Cc1c(-c2ccccc2)cccc1N1C(=O)c2cc(CN[C@H](C(=O)O)C(C)O)c(OCc3cccc(C#N)c3)cc2C1=O` (some centres unmarked) [P39] came in with an IC50 of 8.9 nM. Also, the “cytotoxicity, real-time growth” value in the data set on A375 cells was “essentially non-toxic to A375 cells”. Also, the “inhibitory activity on PD-1 binding to tumor cells compared to BMS202” value in data set [1] (200 nmol/L, Fig. 4A and B) was “stronger inhibitory activity compared to the positive compound BMS202”. For the same molecule, the “binding capacity of PD-1 to H460 cells” value in [1] (P39 0–200 nmol/L, 24 h, flow cytometry and immunostaining) was “significantly decreased in a dose-dependent manner”. The “binding capacity of PD-1 to MDA-MB-231 cells” value in data set [2] is recorded as “significantly decreased in a dose-dependent manner”. Further, the transcriptional-mediated bioluminescent signal result in [3] was “significant increase”. For the same molecule, the “sensitivity of tumor cells to T cell killing (activated human PBMCs)” value in the data set with H460 cells was “greatly increased”. Also, the 50% lethal dose (LD50) at 14 days in the data set “Acute toxicity test” (ICR, mouse, in vivo, po) was > 5000 mg/kg. Besides, the “mortality and body weight loss” value in “Acute toxicity test” (oral single dose 5000 mg/kg, observed two weeks) is “no mortality and obvious body weight loss”. Further, the “tumor volume growth inhibition” value with MC38 tumor cells (10 mg/kg i.p. once daily, 4 weeks) is 54.9%; in the data set with MC38 tumor cells (25 mg/kg i.p. once daily, 4 weeks), 68.3%. In the data set on MC38 tumor cells (10 and 25 mg/kg groups versus control group), the final tumor weight result is recorded as “significantly decreased”. For the same molecule, in the data set with MC38 tumor cells (10 and 25 mg/kg i.p. once daily, 4 weeks), the “weight loss or death of mice during treatment” value is recorded as “No weight loss or death of mice”. In data set [4] (P39 25 mg/kg), the “tumor inhibitory effect compared with BMS202 (10 mg/kg)” value is “much better activity”. The molecule further came in with a tumor inhibition rate in [4] (high dose, 25 mg/kg, 12 days of administration) of 79.0%. The “inhibition rate of tumor growth” value in [4] (low dose, 10 mg/kg) is 66.2%. Moreover, the “ability to clear tumor cells in immunodeficient mice” value in data set [5] is “no ability to clear tumor cells”. Moreover, in the data set with T cells in TILs (P39-treated mice versus control group, Fig. S6C), the “population of CD4+ T cells in the tumor tissue” value is “did not change compared to the control group”. Also, in the data set on T cells in TILs (P39-treated mice, Fig. S6B and 6E), the “ratio of CD8+ to CD3+ T cells in the tumor” value is listed as “greatly increased”. Also, in data set [6], the “expression of CD8, IFN-γ, and GzmB” value is given as “increased expression”.

`Cc1c(-c2ccccc2)cccc1N1C(=O)c2cc(CNC3CCOCC3)c(OCc3cccc(C#N)c3)cc2C1=O` [P7]: half-maximal inhibition against PD-1/PD-L1 interaction (IC50) required 45.6 nM. As to `Cc1c(-c2ccccc2)cccc1N1C(=O)c2cc(CN[C@@H](Cc3ccccc3)C(=O)OC(C)(C)C)c(OCc3cccc(C#N)c3)cc2C1=O` [P40], on PD-1/PD-L1 interaction, the 50% inhibitory concentration (IC50) is 1690 nM. In turn, `Cc1c(-c2ccccc2)cccc1N1C(=O)c2cc(CN[C@@H](Cc3ccccc3)C(=O)O)c(OCc3cccc(C#N)c3)cc2C1=O` [P41] gave a concentration for half-maximal inhibition (IC50) against PD-1/PD-L1 interaction of 527 nM. Same read-out and setting: the figure for `Cc1c(-c2ccccc2)cccc1N1C(=O)c2cc(CN[C@H](C(=O)OC(C)(C)C)C(C)O)c(OCc3cccc(C#N)c3)cc2C1=O` (some centres unmarked) [P38] is > 10000 nM. `Cc1c(-c2ccccc2)cccc1N1C(=O)c2ccc(OCc3cccc(C#N)c3)c(CNC3CCOCC3)c2C1=O` [P9]: the concentration for half-maximal inhibition (IC50) on PD-1/PD-L1 interaction was 1140 nM. With `Cc1c(-c2ccccc2)cccc1N1C(=O)c2ccc(OCc3cccc(C#N)c3)c(CN3CCC[C@H]3C(=O)O)c2C1=O` [P10], 4380 nM corresponded to half-maximal inhibition against PD-1/PD-L1 interaction (IC50). The molecule `Cc1c(-c2ccccc2)cccc1N1C(=O)c2cc(CN3CCOCC3)c(OCc3cccc(C#N)c3)cc2C1=O` [P24] came in with an IC50 at PD-1/PD-L1 interaction of 738 nM. `CC(=O)NCCNCc1cc2c(cc1OCc1cccc(C#N)c1)C(=O)N(c1cccc(-c3ccccc3)c1C)C2=O` [P18] came in with a half-inhibitory concentration (IC50) against PD-1/PD-L1 interaction of 79.1 nM. The same measure, in the same setting: next, `N#Cc1cccc(COc2cc3c(cc2CNC2CCOCC2)C(=O)N(c2cccc(-c4ccccc4)c2Cl)C3=O)c1` [P13]: 39.3 nM; `N#Cc1cccc(COc2cc3c(cc2CN2CCC[C@H]2C(=O)O)C(=O)N(c2cccc(-c4ccccc4)c2F)C3=O)c1` [P16]: 31.6 nM; `Cc1c(-c2ccccc2)cccc1N1C(=O)c2cc(CNCC(=O)OC(C)(C)C)c(OCc3cccc(C#N)c3)cc2C1=O` [P32]: 1160 nM. With `Cc1c(-c2ccccc2)cccc1N1C(=O)c2cc(CNCCO)c(OCc3ccccc3)cc2C1=O` [P5], the IC50 on PD-1/PD-L1 interaction worked out at 216 nM. In the case of `Cc1c(-c2ccccc2)cccc1N1C(=O)c2cc(CNCCO)c(OCc3cccc(C#N)c3)cc2C1=O` [P1], the IC50 on PD-1/PD-L1 interaction turned out to be 45.4 nM. For the same molecule, the “cytotoxicity, real-time growth” value in the data set with A375 cells is recorded as “essentially non-toxic to A375 cells”.

At PD-1/PD-L1 interaction, `Cc1c(-c2ccccc2)cccc1N1C(=O)c2cc(CN3CCC[C@H]3C(=O)O)c(OCc3cccc(C#N)c3)cc2C1=O` [P8] had a half-inhibitory concentration (IC50) of 52.1 nM. In addition, the “cytotoxicity, real-time growth” value in the data set on A375 cells is “essentially non-toxic to A375 cells”. At PD-1/PD-L1 interaction, `Cc1c(-c2ccccc2)cccc1N1C(=O)c2cc(CNCCN(C)C)c(OCc3cccc(C#N)c3)cc2C1=O` [P21] had an IC50 of 189 nM.

On PD-1/PD-L1 interaction, `N#Cc1cccc(COc2cc3c(cc2CN2CCCC[C@H]2C(=O)O)C(=O)N(c2cccc(-c4ccccc4)c2C#N)C3=O)c1` [P12] yielded an IC50 of 100 nM.

Take `Cc1c(-c2ccccc2)cccc1N1C(=O)c2cc(CN3CC(C(=O)O)C3)c(OCc3cccc(C#N)c3)cc2C1=O` [P27]: the IC50 against PD-1/PD-L1 interaction was 42.4 nM. On the same count and under the same terms, next, `Cc1c(-c2ccccc2)cccc1N1C(=O)c2cc(CN3CCC[C@H]3C(N)=O)c(OCc3cccc(C#N)c3)cc2C1=O` [P26]: 564 nM. Take `Cc1c(-c2ccccc2)cccc1N1C(=O)c2cc(CN(C)CC(=O)O)c(OCc3cccc(C#N)c3)cc2C1=O` [P35]: the 50% inhibitory concentration (IC50) at PD-1/PD-L1 interaction stood at 46.6 nM. `Cc1c(-c2ccccc2)cccc1N1C(=O)c2cc(CN3CC[C@@H](O)C3)c(OCc3cccc(C#N)c3)cc2C1=O` [P23] came in with a concentration for half-maximal inhibition (IC50) against PD-1/PD-L1 interaction of 216 nM.

In turn, `Cc1c(-c2ccccc2)cccc1N1C(=O)c2cc(CNCC(=O)O)c(OCc3cccc(C#N)c3)cc2C1=O` [P33] came in with a 50% inhibitory concentration (IC50) against PD-1/PD-L1 interaction of 13.3 nM. For the same molecule, in the data set on A375 cells, the “cytotoxicity, real-time growth” value is reported as “essentially non-toxic to A375 cells”.

In turn, `Cc1c(-c2ccccc2)cccc1N1C(=O)c2cc(CNCCO)c(OCc3ccc(C(C)C)cc3)cc2C1=O` [P6] registered an IC50 at PD-1/PD-L1 interaction of 921 nM. On to `Cc1c(-c2ccccc2)cccc1N1C(=O)c2cc(CN(C)CC(=O)OC(C)(C)C)c(OCc3cccc(C#N)c3)cc2C1=O` [P34], for which, on PD-1/PD-L1 interaction, the concentration for half-maximal inhibition (IC50) is > 10000 nM. Take `Cc1c(-c2ccccc2)cccc1N1C(=O)c2cc(CN[C@@H](C)C(=O)O)c(OCc3cccc(C#N)c3)cc2C1=O` [P37]: the IC50 against PD-1/PD-L1 interaction came out at 11.6 nM. Also, in the data set on A375 cells, the “cytotoxicity, real-time growth” value was “essentially non-toxic to A375 cells”. In the case of `Cc1c(-c2ccccc2)cccc1N1C(=O)c2cc(CN(C)CCO)c(OCc3cccc(C#N)c3)cc2C1=O` [P19], the half-inhibitory concentration (IC50) against PD-1/PD-L1 interaction was 150 nM. Molecule `N#Cc1cccc(COc2cc3c(cc2CN2CCC[C@H]2C(=O)O)C(=O)N(c2cccc(-c4ccccc4)c2Cl)C3=O)c1` [P14] yielded an IC50 on PD-1/PD-L1 interaction of 22.1 nM. The same measure, in the same setting: the figure for `COC(=O)CNCc1cc2c(cc1OCc1cccc(C#N)c1)C(=O)N(c1cccc(-c3ccccc3)c1C)C2=O` [P31] is 836 nM. Molecule `Cc1c(-c2ccccc2)cccc1N1C(=O)c2cc(CN3CC(O)C3)c(OCc3cccc(C#N)c3)cc2C1=O` [P25] yielded a half-maximal inhibitory concentration (IC50) against PD-1/PD-L1 interaction of 187 nM.

In the case of `Cc1c(-c2ccccc2)cccc1N1C(=O)c2cc(CN3CCC[C@H]3CO)c(OCc3cccc(C#N)c3)cc2C1=O` [P22], half-maximal inhibition at PD-1/PD-L1 interaction (IC50) required 251 nM.

Turning to `Cc1c(-c2ccccc2)cccc1N1C(=O)c2cc(CNCCNC(=O)OC(C)(C)C)c(OCc3cccc(C#N)c3)cc2C1=O` [P20], the half-inhibitory concentration (IC50) against PD-1/PD-L1 interaction amounted to 395 nM. With `Cc1c(-c2ccccc2)cccc1N1C(=O)c2cc(CN[C@@H](CO)C(=O)OC(C)(C)C)c(OCc3cccc(C#N)c3)cc2C1=O` [P29], the IC50 against PD-1/PD-L1 interaction was 607 nM.

As for `Cc1c(-c2ccccc2)cccc1N1C(=O)c2cc(CNCCO)c(OCc3ccc(C#N)cc3)cc2C1=O` [P4], the half-maximal inhibitory concentration (IC50) at PD-1/PD-L1 interaction turned out to be 153 nM. For the same molecule, the “cytotoxicity, real-time growth” value in the data set on A375 cells is recorded as “essentially non-toxic to A375 cells”.
